pEC50: −log10 of the molar value.
Assays:
DENV-3 strain H87 = test: Tetravalent RT-qPCR assay Protocol A, serotype 3; format: cell-based; settings: Dengue virus, DENV3, 72 h, RT-qPCR serotype 3 H87, Vero cells, 3 days
Method: (§1) The antiviral activity of the compounds of the invention was tested against DENV-1 strain TC974#666 (NCPV), DENV-2 strain 16681, DENV-3 strain H87 (NCPV) and DENV-4 strains H241 (NCPV) and EDEN (SG/06K2270DK1/2005; GenBank accession number QG398256) in a RT-qPCR assay. Therefore, Vero cells were infected with either DENV-1, or -2, or -3, or -4 in the presence or absence of test compounds. At day 3 post-infection, the cells were lysed and cell lysates were used to prepare cDNA of both a viral target (the 3′UTR of DENV; table 2) and a cellular reference gene (β-actin, table 2). Subsequently, a duplex real time PCR was performed on a Lightcycler480 instrument. The generated Cp value is inversely proportional to the amount of RNA expression of these targets. Inhibition of DENV replication by a test compound result in a shift of Cp's for the 3′UTR gene. On the other hand, if a test compound is toxic to the cells, a similar effect on β-actin expression will be observed. The comparative ΔΔCp method is used to calculate EC50, which is based on the relative gene expression of the target gene (3′UTR) normalized with the cellular housekeeping gene (β-actin). In addition, CC50 values were determined based on the Cp values acquired for the housekeeping gene β-actin.
(§2) The culture medium consisted of minimal essential medium supplemented with 2% of heat-inactivated fetal calf serum, 0.04% gentamycin (50 mg/mL) and 2 mM of L-glutamine. Vero cells, obtained from ECACC, were suspended in culture medium and 75 μL/well was added in 96-well plates (10000 cells/well), which already contain the antiviral compounds. Typically, these plates contain a 4-fold serial dilution of 9 dilution steps of the test compound at 200 times the final concentration in 100% DMSO (500 nL; final concentration range: 25 μM-0.00038 μM). In addition, each plate contains wells which are assigned as virus controls (containing cells and virus in the absence of compound) and cell controls (containing cells in the absence of virus and compound). Once the cells were added in the plates, the plates were incubated in a fully humidified incubator (37° C., 5% CO2) until the next day. Then, DENV-1 strain TC974#666, DENV-2 strain 16681, DENV-3 strain H87 or DENV-4 strains H241 or EDEN were added. […] In parallel, 25 μL of culture medium was added to the cell controls. Next, the plates were incubated for 3 days in a fully humidified incubator (37° C., 5% CO2). After 3 days, the supernatant was removed from the wells and the cells were washed twice with ice-cold PBS (˜100 μL). The cell pellets within the 96-well plates were stored at −80° C. for at least 1 day. Next, RNA was extracted using the Cells-to-CT™ lysis kit, according to the manufacture's guideline (Applied Biosystems). The cell lysates can be stored at −80° C. or immediately used in the reverse transcription step.
(§3) In preparation of the reverse transcription step, mix A (table 3A) was prepared and 7.57 μL/well was dispensed in a 96-well plate. After addition of 5 μL of the cell lysates, a five minute denaturation step at 75° C. was performed (table 3B). Afterwards, 7.43 μL of mix B was added (table 3C) and the reverse transcription step was initiated (table 3D) to generate cDNA.
(§4) Finally, a RT-qPCR mix was prepared, mix C (table 4A), dispensed in 96-well LightCycler qPCR plates to which 3 μL of cDNA was added and the qPCR was performed according to the conditions in table 4B on a LightCycler 480.
(§5) Using the LightCycler software and an in-house LIMS system, dose response curves for each compound were calculated and the half maximal effective concentration (EC50) and the half maximal cytotoxic concentration (CC50) were determined (Tables 6-9).

in vitro = format: cell-based; settings: African green monkey, CC50
Method: (§6) In parallel, the toxicity of the compounds was assessed on the same plates. Once the read-out for the eGFP signal was done, 10 μL of resazurin, a cell viability stain, was added to all wells of the 384-well plates. The resazurin assay is based on the reduction of the blue resazurin by NADH, produced by the cells, into the highly fluorescent product, resorufin. The formation of pink fluorescent resorufin is directly related to the number of viable cells in the well. The plates were incubated for an additional 5 hours in a fully humidified incubator (37° C., 5% CO2). Next, the plates were measured on an Infinite reader (Tecan) using an excitation wavelength of 530 nm. The half maximal cytotoxic concentration (CC50) was also determined, defined as the concentration required to reduce the resazurin conversion by 50% compared to that of the cell control wells (Table 1). Finally, the selectivity index (SI) is determined for the compounds, which is calculated as followed: SI=CC50/EC50.

DENV-4 strain H241 = test: Tetravalent RT-qPCR assay Protocol A, serotype 4 H241; format: cell-based; settings: Dengue virus, DENV4, 72 h, RT-qPCR serotype 4 H241, Vero cells, 3 days
Method: as §1, §2, §3, §4, §5

Vero cells = test: in vitro; format: cell-based; settings: African green monkey
Method: as §6

[1] = Chiral stability at pH 7.4 (enantiomeric excess by Chiral SFC); format: physicochemical
Method: The chiral stability of Enantiomer 1A (R=OMe) was evaluated by determination of the enantiomeric excess (ee %) after incubation for 24 h and 48 h in a buffered solution at pH 7.4 at 40° C. and 60° C. To assess the influence of the methoxy-substituent of Enantiomer 1A (R=OMe) on the stability against racemization, the chiral stability of Enantiomer 1′A (R═H) was tested under the same conditions.
To this end, 5 μM buffered (pH=7.4) solutions of 1A and 1′A were prepared by mixing 25 μL of a 100 μM solution of 1A or 1′A in DMSO with 475 μL aqueous buffer pH 7.4. Samples were taken 24 h and 48 h after incubation at 40° C. and 60° C. The analytical samples were analyzed by Chiral SFC (MS detection) and the chiral purity was expressed as the enantiomeric excess (ee %=% enantiomer A−% enantiomer B).

| SMILES | pEC50 (DENV-3 strain H87) | CC50 (in vitro) | pEC50 (DENV-4 strain H241) | CC50 (Vero cells) | ee % ([1]; 5 μM buffered solution pH 7.4, 40° C., 24 h) | ee % ([1]; 5 μM buffered solution pH 7.4, 40° C., 48 h) | ee % ([1]; 5 μM buffered solution pH 7.4, 60° C., 24 h) | ee % ([1]; 5 μM buffered solution pH 7.4, 60° C., 48 h) |
| --- | --- | --- | --- | --- | --- | --- | --- | --- |
| COc1cc(NC(C(=O)c2c[nH]c3c(C)cc(F)cc23)c2ccc(Cl)cc2OC)cc(OCCO)c1 (single isomer, unassigned) [Compound 8A, 2-(4-chloro-2-methoxyphenyl)-1-(5-fluoro-7-methyl-1H-indol-3-yl)-2-((3-(2-hydroxyethoxy)-5-methoxyphenyl)amino)ethanone] | 7.12 | 4200 nM | 6.52 | – | – | – | – | – |
| COc1cc(NC(C(=O)c2c[nH]c3cc(Cl)ccc23)c2ccc(Cl)cc2OC)cc(OCCO)c1 (single isomer, unassigned) [Compound 4A, 1-(6-chloro-1H-indol-3-yl)-2-(4-chloro-2-methoxyphenyl)-2-((3-(2-hydroxyethoxy)-5-methoxyphenyl)amino)ethanone] | 7.19 | 4900 nM | 6.62 | – | – | – | – | – |
| COc1cc(NC(C(=O)c2c[nH]c3c(F)c(F)ccc23)c2ccc(Cl)cc2OC)cc(OCCO)c1 (single isomer, unassigned) [Compound 11B, 2-(4-chloro-2-methoxyphenyl)-1-(6,7-difluoro-1H-indol-3-yl)-2-((3-(2-hydroxyethoxy)-5-methoxyphenyl)amino)ethanone] | 7.15 | – | 6.46 | 4100 nM | – | – | – | – |
| COc1cc(NC(C(=O)c2c[nH]c3cc(OC)c(C)cc23)c2ccc(Cl)cc2OC)cc(OCCO)c1 (single isomer, unassigned) [Compound 6A, 2-(4-chloro-2-methoxyphenyl)-2-((3-(2-hydroxyethoxy)-5-methoxyphenyl)amino)-1-(6-methoxy-5-methyl-1H-indol-3-yl)ethanone] | 7.59 | 5100 nM | 7.08 | – | – | – | – | – |
| COc1cc(NC(C(=O)c2c[nH]c3cc(OC)ccc23)c2ccc(Cl)cc2OC)cc(OCCO)c1 (single isomer, unassigned) [Compound 5A, 2-(4-chloro-2-methoxyphenyl)-2-((3-(2-hydroxyethoxy)-5-methoxyphenyl)amino)-1-(6-methoxy-1H-indol-3-yl)ethanone] | 7.17 | 5900 nM | 6.49 | – | – | – | – | – |
| COc1cc(NC(C(=O)c2c[nH]c3cc(OC)c(F)cc23)c2ccc(Cl)cc2OC)cc(OCCO)c1 (single isomer, unassigned) [Compound 7A, 2-(4-chloro-2-methoxyphenyl)-1-(5-fluoro-6-methoxy-1H-indol-3-yl)-2-((3-(2-hydroxyethoxy)-5-methoxyphenyl)amino)ethanone] | 7.15 | 6100 nM | 6.64 | – | – | – | – | – |
| COc1cc(NC(C(=O)c2c[nH]c3cc(F)c(F)cc23)c2ccc(Cl)cc2OC)cc(OCCO)c1 (single isomer, unassigned) [Compound 9A, 2-(4-chloro-2-methoxyphenyl)-1-(5,6-difluoro-1H-indol-3-yl)-2-((3-(2-hydroxyethoxy)-5-methoxyphenyl)amino)ethanone] | 7.20 | 3900 nM | 6.62 | 6500 nM | – | – | – | – |
| COc1cc(NC(C(=O)c2c[nH]c3c(C)c(Cl)ccc23)c2ccc(Cl)cc2OC)cc(OCCO)c1 (single isomer, unassigned) [Compound 3A, 2-(4-chloro-2-methoxyphenyl)-1-(6-chloro-7-methyl-1H-indol-3-yl)-2-((3-(2-hydroxyethoxy)-5-methoxyphenyl)amino)ethanone] | 7.44 | 4500 nM | 6.74 | – | – | – | – | – |
| COc1cc(NC(C(=O)c2c[nH]c3c(C)c(F)ccc23)c2ccc(Cl)cc2OC)cc(OCCO)c1 (single isomer, unassigned) [Compound 2A, 2-(4-chloro-2-methoxyphenyl)-1-(6-fluoro-7-methyl-1H-indol-3-yl)-2-((3-(2-hydroxyethoxy)-5-methoxyphenyl)amino)ethanone] | 7.28 | 4200 nM | 6.59 | – | – | – | – | – |
| COc1cc(NC(C(=O)c2c[nH]c3cc(F)ccc23)c2ccc(Cl)cc2OC)cc(OCCO)c1 (single isomer, unassigned) [Compound 1A, 2-(4-chloro-2-methoxyphenyl)-1-(6-fluoro-1H-indol-3-yl)-2-((3-(2-hydroxyethoxy)-5-methoxyphenyl)amino)ethanone] | 7.20 | 4300 nM | 6.62 | – | 100% | 100% | 99% | 96% |
| COc1cc(NC(C(=O)c2c[nH]c3c(F)cc(C)cc23)c2ccc(Cl)cc2OC)cc(OCCO)c1 (single isomer, unassigned) [Compound 10A, 2-(4-chloro-2-methoxyphenyl)-1-(7-fluoro-5-methyl-1H-indol-3-yl)-2-((3-(2-hydroxyethoxy)-5-methoxyphenyl)amino)ethanone] | 7.15 | 4500 nM | 6.49 | – | – | – | – | – |
